Measurements as given in US8697687B2, “Treating diseases mediated by blockade of the epithelial sodium channel with pyrazine-2-carboxamide derivatives” (Novartis AG, priority 2007, dated 2014).

Target: T1, epithelial sodium channel (ENaC) (Homo sapiens, UniProt P37088+P51168+P51170)
T1 construct: host or cells: primary Human Bronchial Epithelial cells (HBECs), air-liquid interface culture
T1 sequence (P37088 1-669): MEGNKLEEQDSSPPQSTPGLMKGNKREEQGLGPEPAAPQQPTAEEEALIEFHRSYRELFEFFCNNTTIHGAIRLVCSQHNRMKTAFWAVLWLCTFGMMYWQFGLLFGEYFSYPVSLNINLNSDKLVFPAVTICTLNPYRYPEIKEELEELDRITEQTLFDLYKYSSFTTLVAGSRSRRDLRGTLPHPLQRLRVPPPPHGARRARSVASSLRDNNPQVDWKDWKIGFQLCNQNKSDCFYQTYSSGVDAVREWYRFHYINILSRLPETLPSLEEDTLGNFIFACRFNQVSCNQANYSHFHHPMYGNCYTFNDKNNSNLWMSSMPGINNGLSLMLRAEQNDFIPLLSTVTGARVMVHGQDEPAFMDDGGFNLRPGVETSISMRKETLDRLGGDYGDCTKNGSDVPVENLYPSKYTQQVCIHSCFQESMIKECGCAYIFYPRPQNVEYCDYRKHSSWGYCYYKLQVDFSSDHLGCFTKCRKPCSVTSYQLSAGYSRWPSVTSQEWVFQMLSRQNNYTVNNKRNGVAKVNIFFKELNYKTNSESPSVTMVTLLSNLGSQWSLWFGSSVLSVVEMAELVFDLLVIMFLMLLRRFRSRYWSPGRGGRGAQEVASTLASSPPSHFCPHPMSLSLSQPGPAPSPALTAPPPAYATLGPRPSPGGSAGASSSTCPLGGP
T1 sequence (P51168 1-640): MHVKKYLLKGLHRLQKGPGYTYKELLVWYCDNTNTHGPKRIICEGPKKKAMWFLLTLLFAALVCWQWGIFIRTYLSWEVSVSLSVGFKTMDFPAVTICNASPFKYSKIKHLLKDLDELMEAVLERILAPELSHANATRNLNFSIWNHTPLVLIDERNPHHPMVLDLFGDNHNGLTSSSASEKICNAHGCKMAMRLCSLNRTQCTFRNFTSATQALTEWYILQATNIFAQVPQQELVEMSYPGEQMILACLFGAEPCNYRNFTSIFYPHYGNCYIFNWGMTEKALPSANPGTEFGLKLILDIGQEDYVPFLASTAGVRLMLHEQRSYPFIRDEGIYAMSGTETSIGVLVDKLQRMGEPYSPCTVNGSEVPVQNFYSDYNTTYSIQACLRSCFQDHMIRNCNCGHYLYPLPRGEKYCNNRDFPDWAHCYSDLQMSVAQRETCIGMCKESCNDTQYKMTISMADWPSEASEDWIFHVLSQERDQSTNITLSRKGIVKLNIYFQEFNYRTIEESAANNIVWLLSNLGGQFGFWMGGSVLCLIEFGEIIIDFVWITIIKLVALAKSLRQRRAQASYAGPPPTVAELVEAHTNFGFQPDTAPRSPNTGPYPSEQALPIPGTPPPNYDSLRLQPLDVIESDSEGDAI
T1 sequence (P51170 1-649): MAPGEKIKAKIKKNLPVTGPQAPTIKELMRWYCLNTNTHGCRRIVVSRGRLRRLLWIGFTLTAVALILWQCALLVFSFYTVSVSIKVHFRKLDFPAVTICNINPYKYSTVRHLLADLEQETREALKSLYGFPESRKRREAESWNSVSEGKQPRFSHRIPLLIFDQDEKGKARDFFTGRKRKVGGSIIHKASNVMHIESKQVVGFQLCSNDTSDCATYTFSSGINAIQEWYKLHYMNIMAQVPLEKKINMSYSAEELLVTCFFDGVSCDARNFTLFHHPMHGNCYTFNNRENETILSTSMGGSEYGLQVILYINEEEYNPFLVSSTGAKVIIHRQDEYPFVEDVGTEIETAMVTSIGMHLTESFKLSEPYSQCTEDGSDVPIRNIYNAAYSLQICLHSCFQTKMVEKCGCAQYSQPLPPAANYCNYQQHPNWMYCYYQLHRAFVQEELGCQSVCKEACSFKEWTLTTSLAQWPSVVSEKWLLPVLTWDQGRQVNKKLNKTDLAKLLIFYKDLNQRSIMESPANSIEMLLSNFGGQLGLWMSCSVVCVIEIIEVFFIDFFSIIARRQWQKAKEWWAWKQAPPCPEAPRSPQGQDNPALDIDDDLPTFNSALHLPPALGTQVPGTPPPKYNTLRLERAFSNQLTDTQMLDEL
Assay: Short circuit current (ISC) measurements in Human Bronchial Epithelial cells, inhibition of amiloride-sensitive ISC
Type: cell-based
Settings: inhibition of the amiloride-sensitive ISC; Human Bronchial Epithelial cells (HBECs) at air-liquid interface; compound added to apical chamber; read-out: IC50
Outline: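 Well-differentiated air-liquid interface HBECs (days 7–21) in Ussing chambers, Ringer pH 7.4, 37° C, voltage clamped at 0 mV. Cumulative 3-fold apical compound additions, then 10 μM amiloride to define total amiloride-sensitive ISC. IC50 from mean % inhibition, typically duplicate inserts.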

| SMILES | IC50 |
| --- | --- |
| CC(c1ccccc1)N1CCC2(CC1)CN/C(=N\C(=O)c1nc(Cl)c(N)nc1N)N2 (centres unmarked) [Example 246, 3,5-Diamino-6-chloro-pyrazine-2-carboxylic acid [8-(1-phenyl-ethyl)-1,3,8-triaza-spiro[4.5]dec-(2E)-ylidene]-amide] | 25 nM |
| Nc1nc(N)c(C(=O)/N=C2\NCC3(CC4CCC(C3)N4C(=O)c3cccc4[nH]ccc34)N2)nc1Cl (centres unmarked) [Example 252, (E)-N-(8-(1H-indole-4-carbonyl)-8-azaspiro[bicyclo[3.2.1]octane-3,4′-imidazolidine]-2′-ylidene)-3,5-diamino-6-chloropyrazine-2-carboxamide] | 28 nM |
